Measurements published in US20230265069A1, “Small Molecule Inhibitors That Block the Budding of Enveloped Viruses” (priority 2020, published 2023).

Key:
HSV-2 = HSV-2 release from infected Vero cells, plaque assay; conditions: for EC50 (μM) Inhibition of HSV-2 Budding at 24 h: HSV-2 infected Vero cells, virus released into media, plaque assay
[1] = target: T1, Tsg101-UEV (Tsg101 amino acids 1-145) (Homo sapiens, UniProt Q99816); test: Fluorescence thermal shift (FTS) assay, binding to Tsg101-UEV; conditions: for Tm shift of Tsg101 in the FTS assay on addition of DTT: with reducing agent DTT
T1 sequence (Q99816 1-145): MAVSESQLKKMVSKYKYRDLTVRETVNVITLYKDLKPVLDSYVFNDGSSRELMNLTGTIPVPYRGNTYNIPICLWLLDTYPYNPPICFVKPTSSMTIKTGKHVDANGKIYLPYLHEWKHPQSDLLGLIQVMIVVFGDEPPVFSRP
Description: The fluorescence-based thermal shift assay is based on the observation that a protein unfolds upon heating, exposing the hydrophobic residues within its tertiary structure. The unfolding temperature (Tm) is determined by the protein's primary sequence and solution environment. The FTS assay uses a fluorescent dye sensitive to a hydrophobic environment to probe protein stability and its modulation by small molecule ligands. The dye has a low fluorescence quantum yield when in a polar environment. Once in contact with the hydrophobic core normally buried within a folded protein that has become exposed during the thermal unfolding (melting) process, the quantum yield of the dye increases, thus providing a reporting signal. Furthermore, a protein's stability can be affected by ligand binding, resulting in an increase or decrease in its melting temperature. FTS assay uses the Tm shift upon binding of a ligand to identify hit compounds for drug discovery.
We screened chemical compounds using a fluorescence thermal shift (FTS) assay (27, 28) to identify small molecules that bind directly to a truncated form of Tsg101 (amino acids 1-145) which contains the Ubiquitin E2 variant (UEV) ubiquitin-binding domain (FIG. 1A, 1B, 1C). […] This truncated Tsg101, called Tsg101-UEV, was used because full-length Tsg101 has significant solubility issues in aqueous solution. Tsg101 is an adaptor protein and thus lacks a readily deployable functional assay, making FTS a tractable approach to identify interacting compounds. FTS monitors protein thermal denaturation using SYPRO® Orange, a dye which fluoresces when bound to hydrophobic surfaces, which allows monitoring of the changes in hydrophobic surface exposure during protein denaturation (27). Since ligand binding affects protein thermal stability, it can be detected through modulation of protein thermal denaturation (melting) as a shift in melting temperature (Tm). Tsg101-UEV has a well-defined melting curve suitable for FTS. We used the FTS assay to identify compounds that bind to Tsg101-UEV.
Fluorescence thermal shift (FTS) screening to identify small molecule binding to Tsg101-UEV. FTS using thermal shift elicited by the small molecule binding effect to protein stability. FTS monitors protein thermal denaturation using environment-sensitive dye Sypro® Orange which fluoresces when bound to hydrophobic surfaces, taking advantage of the changes in hydrophobic surface exposure in protein denaturation. Discovery of small molecule binding to target protein utilizes the observation that ligand binding affects protein thermal stability, and therefore can be detected through a shift in the protein's thermal denaturation (melting) temperature (Tm). We have employed FTS to reveal changes in thermodynamic properties of Tsg101 elicited by its interaction with a small molecule. […] A fluorescence dye Sypro® Orange (Invitrogen) was used for assay detection. The dye is excited at 473 nm and has a fluorescence emission at 610 nm. The dye binds to hydrophobic regions of a protein that are normally buried in a native protein structure. […] The Tsg101 fragment was premixed at a concentration of 2 μM with a 5× concentration of Sypro® Orange in HEPES buffer (100 mM HEPES, 150 mM NaCl, pH 7.5). Then 10 μl of the protein-dye mix was added to an assay plate and 10 to 50 nanoliters of compound, equal to 10 to 50 μM, were added with an acoustic transfer robot Echo550 (Labcyte, CA).

Molecule | EC50 (HSV-2; Human alphaherpesvirus 2, Vero, 24 h, read-out: EC50 (μM) Inhibition of HSV-2 Budding at 24 h) [µM] | EC50 (μM) Inhibition of HSV-2 Budding at 24 h (HSV-2) | Tm shift of Tsg101 in the FTS assay on addition of DTT [1] | Thermal shift (Tm shift) of Tsg101-UEV caused by compound ([1]; FTS dose response, result in words)
Cc1c(OCC(F)(F)F)ccnc1C[S+]([O-])c1nc2ccccc2[nH]1 (stereo not drawn) [Lansoprazole] | 84 | – | – | –
Rabeprazole | – | inactive | abolishes the Tm shift | –
Pantoprazole | – | inactive | abolishes the Tm shift | smallest thermal shift
